In ChEMBL document CHEMBL1201862, “PubChem BioAssay data set” (2004):
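The compound was tested at five concentrations on cells cultured in 96-well plates, with a 48-hour exposure period. The concentration for 50% growth inhibition is given as GI50.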 Activity calls are given as the source filed them. Rule as the data show it: active = GI50 up to about 1.1 µM and inactive = higher.

How the values were obtained:
Test in all cases: NCI-60 cell line screen, 48 h
NCI-H460 = tested on: NCI-H460
SN12C = tested on: SN12C
MDA-MB-231 = tested on: MDA-MB-231
SF-295 = tested on: SF-295
TK-10 = tested on: TK-10
NCI-H522 = tested on: NCI-H522
RPMI-8226 = tested on: RPMI-8226
HCT-116 = tested on: HCT-116
NCI-H226 = tested on: NCI-H226
COLO 205 = tested on: COLO 205
OVCAR-3 = tested on: OVCAR-3
NCI-H23 = tested on: NCI-H23
IGROV-1 = tested on: IGROV-1
EKVX = tested on: EKVX
SK-MEL-5 = tested on: SK-MEL-5
HCC 2998 = tested on: HCC 2998
SW-620 = tested on: SW-620
ACHN = tested on: ACHN
MCF7 = tested on: MCF7

Measured: GI50

Cc1n[nH]c(=O)n1-n1cccc1
inactive: NCI-H460 > 100 µM | SN12C > 100 µM | MDA-MB-231 > 100 µM | SF-295 > 100 µM | TK-10 > 100 µM | NCI-H522 > 100 µM | RPMI-8226 > 100 µM | HCT-116 > 100 µM | NCI-H226 > 100 µM | COLO 205 > 100 µM | OVCAR-3 > 100 µM | NCI-H23 > 100 µM | IGROV-1 > 100 µM | EKVX > 100 µM | SK-MEL-5 > 100 µM | HCC 2998 > 100 µM | SW-620 > 100 µM | ACHN > 100 µM | MCF7 > 100 µM

CCCCCCCCCCCCCCCCOP(=O)([O-])OCC[N+](C)(C)C [MILTEFOSINE]
inactive: NCI-H460 6 µM | SN12C 16.1 µM | MDA-MB-231 21.8 µM | SF-295 7.69 µM | TK-10 2.1 µM | NCI-H522 16.4 µM | RPMI-8226 6.1 µM | HCT-116 18.2 µM | NCI-H226 20.7 µM | COLO 205 5.58 µM | OVCAR-3 23.9 µM | NCI-H23 33.3 µM | IGROV-1 2.77 µM | EKVX 27 µM | SK-MEL-5 23.8 µM | HCC 2998 5.38 µM | SW-620 20.8 µM | ACHN 16 µM | MCF7 24.9 µM

COc1ccc(-c2cc(=O)c3c(OC)c(OC)c(OC)c(OC)c3o2)c(OC)c1
inactive: NCI-H460 32.1 µM | SN12C 20.6 µM | MDA-MB-231 25.1 µM | SF-295 18.4 µM | TK-10 37.2 µM | NCI-H522 12.9 µM | RPMI-8226 33 µM | HCT-116 21.6 µM | NCI-H226 31 µM | COLO 205 17.1 µM | OVCAR-3 13.4 µM | NCI-H23 16.9 µM | IGROV-1 36.9 µM | EKVX 29.2 µM | SK-MEL-5 16 µM | HCC 2998 18.8 µM | SW-620 31.1 µM | ACHN 24.8 µM | MCF7 20.5 µM

O=C(NC(Cc1c[nH]c2ccccc12)C(=O)Nc1ccc(Br)cc1)OCc1ccccc1 (stereo not given)
inactive: NCI-H460 6.22 µM | SN12C 9.46 µM | MDA-MB-231 10.2 µM | SF-295 9.23 µM | TK-10 14.9 µM | NCI-H522 10.1 µM | RPMI-8226 6.38 µM | HCT-116 9.82 µM | NCI-H226 14.5 µM | COLO 205 12.1 µM | OVCAR-3 11.6 µM | NCI-H23 11.8 µM | IGROV-1 9.12 µM | EKVX 6.59 µM | SK-MEL-5 10.7 µM | HCC 2998 11 µM | SW-620 16 µM | ACHN 10.2 µM | MCF7 10.4 µM

COC(=O)C(Cc1ccccc1)NC(=O)CCCNC(=O)OCc1ccccc1 (stereo not given)
inactive: NCI-H460 > 100 µM | SN12C > 100 µM | MDA-MB-231 > 100 µM | SF-295 > 100 µM | TK-10 > 100 µM | NCI-H522 > 100 µM | RPMI-8226 87.3 µM | HCT-116 > 100 µM | NCI-H226 > 100 µM | COLO 205 77.4 µM | OVCAR-3 > 100 µM | NCI-H23 > 100 µM | IGROV-1 > 100 µM | EKVX > 100 µM | SK-MEL-5 22.4 µM | HCC 2998 > 100 µM | SW-620 > 100 µM | ACHN 33 µM | MCF7 > 100 µM

NC(=O)NNCc1c(-c2ccccc2)no[n+]1[O-]
inactive: NCI-H460 > 100 µM | SN12C > 100 µM | MDA-MB-231 > 100 µM | SF-295 > 100 µM | TK-10 > 100 µM | NCI-H522 > 100 µM | RPMI-8226 > 100 µM | HCT-116 > 100 µM | NCI-H226 > 100 µM | COLO 205 > 100 µM | OVCAR-3 > 100 µM | NCI-H23 > 100 µM | IGROV-1 > 100 µM | EKVX > 100 µM | SK-MEL-5 > 100 µM | HCC 2998 > 100 µM | SW-620 > 100 µM | ACHN > 100 µM | MCF7 > 100 µM

CC(C)(C)C1=CC(=C(c2ccc(-c3c4nc(c(-c5ccc(C(=C6C=C(C(C)(C)C)C(=O)C(C(C)(C)C)=C6)c6cc(C(C)(C)C)c(O)c(C(C)(C)C)c6)cc5)c5ccc([nH]5)c(-c5ccc(C(=C6C=C(C(C)(C)C)C(=O)C(C(C)(C)C)=C6)c6cc(C(C)(C)C)c(O)c(C(C)(C)C)c6)cc5)c5nc(c(-c6ccc(C(=C7C=C(C(C)(C)C)C(=O)C(C(C)(C)C)=C7)c7cc(C(C)(C)C)c(O)c(C(C)(C)C)c7)cc6)c6ccc3[nH]6)C=C5)C=C4)cc2)c2cc(C(C)(C)C)c(O)c(C(C)(C)C)c2)C=C(C(C)(C)C)C1=O
inactive: NCI-H460 > 100 µM | SN12C > 100 µM | MDA-MB-231 > 100 µM | SF-295 > 100 µM | TK-10 > 100 µM | NCI-H522 > 100 µM | RPMI-8226 > 100 µM | HCT-116 > 100 µM | NCI-H226 > 100 µM | COLO 205 > 100 µM | OVCAR-3 > 100 µM | NCI-H23 > 100 µM | IGROV-1 > 100 µM | EKVX > 100 µM | SK-MEL-5 > 100 µM | HCC 2998 > 100 µM | SW-620 > 100 µM | ACHN > 100 µM | MCF7 > 100 µM

O=C(O)CC12CC3CC(CC(O)(C3)C1)C2
inactive: NCI-H460 > 100 µM | SN12C > 100 µM | MDA-MB-231 > 100 µM | SF-295 > 100 µM | TK-10 > 100 µM | NCI-H522 27.7 µM | RPMI-8226 > 100 µM | HCT-116 > 100 µM | NCI-H226 > 100 µM | COLO 205 > 100 µM | OVCAR-3 3.14 µM | NCI-H23 > 100 µM | IGROV-1 > 100 µM | EKVX > 100 µM | SK-MEL-5 > 100 µM | HCC 2998 > 100 µM | SW-620 > 100 µM | ACHN > 100 µM | MCF7 > 100 µM

COC1(OC)C=CC2C1C1C=CC2C1(OC)OC (stereo not given)
inactive: NCI-H460 > 100 µM | SN12C > 100 µM | MDA-MB-231 > 100 µM | SF-295 > 100 µM | TK-10 > 100 µM | NCI-H522 > 100 µM | RPMI-8226 > 100 µM | HCT-116 > 100 µM | NCI-H226 > 100 µM | COLO 205 > 100 µM | OVCAR-3 > 100 µM | NCI-H23 > 100 µM | IGROV-1 > 100 µM | EKVX > 100 µM | SK-MEL-5 > 100 µM | HCC 2998 > 100 µM | SW-620 > 100 µM | ACHN > 100 µM | MCF7 > 100 µM

O=C(O)CCC1C(=O)C2CCN1CC2 (stereo not given)
inactive: NCI-H460 > 100 µM | SN12C > 100 µM | MDA-MB-231 > 100 µM | SF-295 > 100 µM | TK-10 > 100 µM | NCI-H522 > 100 µM | RPMI-8226 > 100 µM | HCT-116 > 100 µM | NCI-H226 > 100 µM | COLO 205 > 100 µM | OVCAR-3 > 100 µM | NCI-H23 > 100 µM | IGROV-1 > 100 µM | EKVX > 100 µM | SK-MEL-5 > 100 µM | HCC 2998 > 100 µM | SW-620 > 100 µM | ACHN > 100 µM | MCF7 > 100 µM
